What is called IC50 is the concentration that inhibits the measured activity by half. A higher IC50 goes with lower potency.

Experiment [1] concerns concanavalin A-stimulated splenocytes. The experiment can be described thus: Concanavalin A-stimulated splenocyte assay. In kind it is cell-based, BALB/c mice. As to conditions: for IC50: immunosuppressive activity, ConA-stimulated murine splenocytes, [3H]thymidine incorporation, 7 point curves. How it is done: Concanavalin A-Stimulated Splenocyte Assay
Male BALB/c mice, at 5 to 7 weeks of age, were sacrificed by CO2 inhalation. Spleens were removed and dissociated by pushing through a nylon cell strainer. The splenocytes were washed in RPMI 1640/5% fetal calf serum (FCS) and pelleted at 400×g. Red blood cells were then lysed by resuspending the cell pellet in ACK lysis buffer (150 mM NH4Cl, 1 mM KHCO3, 0.1 mM EDTA, 3 mL per spleen) for 10 min at room temperature. After pelleting at 400×g, the cells were washed by resuspending in RPMI 1640/5% FCS and repelleting. The cell pellet was resuspended in RPMI 1640/5% FCS and again passed through a cell strainer to remove cell aggregates. The cells were then counted and adjusted to 2×10^6 cells/ml in RPMI 1640/10% FCS/50 μM 2-mercaptoethanol. Cell viability was assessed by Trypan blue staining. […] The cells were cultured in a 37° C. CO2 incubator for 2 days and then pulsed with 1 μCi of [^3H]thymidine for 6 hours. Cells were harvested onto filtermats with a TomTec 96 well plate harvester and lysed with H2O. The filtermat and scintillation fluid were sealed in a plastic sleeve. [^3H]thymidine incorporation was measured with a Wallac Trilux plate counter. Initial screens were done at a fixed value of 100 ng/ml test compound. IC50s were calculated from 7 point concentration-response curves using GraphPad software.
(Uptake of a labelled nucleoside into DNA is a usual measure of proliferation.)

Experiment [2] has as its system hepatitis C virus replication. The note with it: Paeshuyse et al. 2005; cited from earlier work.
The next experiment concerns the target cyclophilin A (Homo sapiens, UniProt P62937). As to conditions: cited from earlier work.
For experiment [3], the system named is immunosuppressive activity. As to conditions: Mlynar et al. 1997; cited from earlier work.
Another experiment relates to calcineurin. As to conditions: cited from earlier work.
The next experiment has as its system HIV-1. The note with it: literature report; cited from earlier work.

Converted amounts (≈) assume the structure as drawn.

Chain of cyclophilin A (P62937 whole entry): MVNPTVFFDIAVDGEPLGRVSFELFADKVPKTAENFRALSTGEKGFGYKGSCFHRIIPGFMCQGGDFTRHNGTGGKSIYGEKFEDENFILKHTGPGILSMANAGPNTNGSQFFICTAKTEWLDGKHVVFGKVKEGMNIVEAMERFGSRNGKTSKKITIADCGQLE

With `CC[C@@H]1NC(=O)[C@H]([C@H](O)[C@H](C)C/C=C/Br)N(C)C(=O)[C@H](C(C)C)N(C)C(=O)[C@H](CC(C)C)N(C)C(=O)[C@H](CC(C)C)N(C)C(=O)[C@@H](C)NC(=O)[C@H](C)NC(=O)[C@H](CC(C)C)N(C)C(=O)[C@H](C(C)C)NC(=O)[C@H](CC(C)C)N(C)C(=O)CN(C)C1=O` (relative stereo) [Example 19, trans-cyclosporin vinyl bromide], the “IC50” value in experiment [1] worked out at 9 ng/mL.
Turning to `C=C/C=C/C[C@@H](C)[C@@H](O)[C@H]1C(=O)N[C@@H](CC)C(=O)N(C)[C@H](CO)C(=O)N(C)[C@@H](CC(C)C)C(=O)N[C@@H](C(C)C)C(=O)N(C)[C@@H](CC(C)C)C(=O)N[C@@H](C)C(=O)N[C@H](C)C(=O)N(C)[C@@H](CC(C)C)C(=O)N(C)[C@@H](CC(C)C)C(=O)N(C)[C@@H](C(C)C)C(=O)N1C` (relative stereo) [Example 67, trans-cyclosporin diene], in experiment [1], the “IC50” value is 7 ng/mL (≈ 5.62 nM).
Turning to `C/C=C/C[C@@H](C)[C@@H](O)[C@H]1C(=O)N[C@@H](CC)C(=O)N(C)[C@H](C)C(=O)N(CC)[C@@H](C(C)C)C(=O)N[C@@H](C(C)C)C(=O)N(C)[C@@H](CC(C)C)C(=O)N[C@@H](C)C(=O)N[C@H](C)C(=O)N(C)[C@@H](CC(C)C)C(=O)N(C)[C@@H](CC(C)C)C(=O)N(C)[C@@H](C(C)C)C(=O)N1C` [DEBIO-025], in experiment [2], the “inhibition of hepatitis C virus replication” value is “potent and selective inhibition of hepatitis C virus replication”. For the same compound, at cyclophilin A, the “binding affinity for cyclophilin A” value is “potent binding affinity”.
As to `CC[C@@H]1NC(=O)[C@H]([C@H](O)[C@H](C)CC=CC(F)(F)F)N(C)C(=O)[C@H](C(C)C)N(C)C(=O)[C@H](CC(C)C)N(C)C(=O)[C@H](CC(C)C)N(C)C(=O)[C@@H](C)NC(=O)[C@H](C)NC(=O)[C@H](CC(C)C)N(C)C(=O)[C@H](C(C)C)NC(=O)[C@H](CC(C)C)N(C)C(=O)CN(C)C1=O` [Example 31, cyclosporin fluoride], in experiment [1], the 50% inhibitory concentration (IC50) worked out at 38 ng/mL (≈ 30.2 nM).
Turning to `CC[C@@H]1NC(=O)[C@H]([C@H](O)[C@H](C)CC=CCF)N(C)C(=O)[C@H](C(C)C)N(C)C(=O)[C@H](CC(C)C)N(C)C(=O)[C@H](CC(C)C)N(C)C(=O)[C@@H](C)NC(=O)[C@H](C)NC(=O)[C@H](CC(C)C)N(C)C(=O)[C@H](C(C)C)NC(=O)[C@H](CC(C)C)N(C)C(=O)CN(C)C1=O` [Example 34, cyclosporin allylic fluoride], in experiment [1], the “IC50” value worked out at 12 ng/mL (≈ 9.83 nM).
Regarding `C/C=C/C[C@@H](C)[C@@H](O)[C@H]1C(=O)N[C@@H](CC)C(=O)N(C)CC(=O)N(C)[C@@H]([C@@H](C)CC)C(=O)N[C@@H](C(C)C)C(=O)N(C)[C@@H](CC(C)C)C(=O)N[C@@H](C)C(=O)N[C@H](C)C(=O)N(C)[C@@H](CC(C)C)C(=O)N(C)[C@@H](CC(C)C)C(=O)N(C)[C@@H](C(C)C)C(=O)N1C` [SDZ NIM 811], the immunosuppressive activity result in experiment [3] is given as “completely devoid of immunosuppressive activity”. The inhibition of calcineurin entry in the experiment on calcineurin is given as “does not inhibit calcineurin”. In the experiment on HIV-1, the anti-HIV-1 activity result was “potent and selective anti-HIV-1 activity”.
In the case of cyclosporin vinyl iodide [Example 6], the half-inhibitory concentration (IC50) in experiment [1] is reported as 11 ng/mL.
With trans-cyclosporin diene-d2 [Example 69], the half-inhibitory concentration (IC50) in experiment [1] came to 4 ng/mL.
For the compound “trans-deuterated cyclosporin vinyl iodide [Example 9]”, the “potency in immunosuppression compared to cyclosporin A” value in experiment [1] (FIG. 1, ConA-stimulated splenocyte assay) is “enhanced potency”. Moreover, in experiment [1], the “IC50” value is given as 7 ng/mL.

The values above are taken from patent US20070232532A1, “Use of cyclosporin alkene analogues for preventing or treating viral-induced disorders” (priority 2006, published 2007).
